The values that follow come from patent US11649220B2 (DEMOTECH.INC., priority 2018, dated 2023).

Assay [1] is described as follows: In vitro free radical inhibition test (DPPH method). The note with it: 8 μL of 20 mmol/L compound in 1 mL DPPH 0.059 mg/mL ethanol, 60 min dark, 517 nm; for inhibition rate %: DPPH; for Relative inhibition ability on free radicals: inhibition rate of AGI1067 on DPPH defined as 100. An excerpt: 1. In Vitro Free Radical Inhibition Test (DPPH Method)
The single electron of DPPH radical has a strong absorption at […], and its alcohol solution is purple. In the presence of a free radical scavenger, the absorption of DPPH radical is weakened or disappeared for the reason that the free radical scavenger is paired with the single electron of DPPH radical, and the degree of discoloration is quantitatively related to the number of electrons DPPH radical receives. Therefore, a spectrophotometer can be used to quickly and quantitatively analyze the free radical scavenging rate of the compound.
1) 1 mL solution of DPPH in absolute ethanol (concentration: 0.059 mg/mL) was taken; 2) 8 μL of the compound to be tested (20 mmol/L) were added; 3) after mixing well, the resultant was kept in dark at room temperature for 60 minutes, 4) the absorbance of the sample at 517 nm was measured.
For orientation: DPPH is a stable violet radical that fades when it is reduced.

The subject of assay [2] is Malondialdehyde (MDA) in serum. Description: In vivo anti-lipid oxidation experiment (serum MDA, TBA method). Also noted: inhibition rate %: concentration or dose not given beside the values. Conditions: MAD lipid peroxidation in vivo; for inhibition rate %: relative to solvent DMSO and Chow averages; for avarage value of OD: serum, TBA method, 532 nm. The text has this:
Experimental principle: Malondialdehyde (MDA) in liposome degradation products could condense with thiobarbituric acid (TBA) to form a red product which has a maximum absorption peak at 532 nm. The spectrophotometer was used to measure the relative absorption value to calculate the antioxidant value.
Reagents: Malondialdehyde (MDA) test kit (article number: A003-1, […], Nanjing Jiancheng), glacial acetic acid of analytically pure grade.
Reagent preparations: 1) Reagent I: Reagent 1 in the kit was taken out from the refrigerator and subjected to natural warming until a transparent liquid is obtained; 2) Reagent II: 170 mL of double-distilled water was added to each bottle and mixed; 3) Reagent III: A dry powder in the kit was dissolved in 60 mL of double-distilled water at 90 to 100° C. After the dry powder was dissolved totally, 30 mL of glacial acetic acid was added and kept in dark place; 4) Standard: 10 nmol/mL tetraethoxypropane.
Experimental procedures: 1) Blank tube: To 2 mL centrifuge tube were added anhydrous ethanol (70 μl), Reagent I (70 μl), Reagent II (0.8 mL) and Reagent III (0.8 mL) in sequence; 2) Standard tube: To 2 mL centrifuge tube were added standard (70 μl), Reagent I (70 μl), Reagent 11 (0.8 mL) and Reagent III (0.8 mL) in sequence; 3) Measuring tube: To 2 mL centrifuge tube were added the serum to be tested and physiological saline (the total volume of serum and physiological saline is 70 μl), Reagent I (70 μl), Reagent II (0.8 mL) and Reagent III (0.8 mL) in sequence; 4) Control tubes: all samples are set up with corresponding control tubes. To a 2 mL centrifuge tube were added the serum to be tested and physiological saline (the total volume of serum and physiological saline is 70 μl), Reagent I (70 μl), Reagent II (0.8 mL) and 50% glacial acetic acid (0.8 mL) in sequence.
After the above reagents were added, the mixture was mixed homogenously. Then the mixture was left in the water bath at 95° C. for 60 minutes. The sample was centrifuged at 4000 rpm for 10 minutes. The supernatant was taken for the measurement of the OD value.
Experimental data processing: the MDA content in serum was calculated as follows: MDA=(OD valuemeasured−OD valuecontrol)/OD valuestandard*concentration of the standard Inhibition rate %=100−(ODsample-average value−average value of Chow)/(average value of the solvent DMSO−average value of Chow)*100

`CC(C)(Sc1cc(C(C)(C)C)c(O)c(C(C)(C)C)c1)Sc1cc(C(C)(C)C)c(O)c(C(C)(C)CCOCCN2CCOCC2)c1` [Compound 18, 2,6-di-tert-butyl-4-((2-((3-(tert-butyl)-4-hydroxy-5-(2-methyl-4-(2-morpholinoethoxy)butan-2-yl)phenyl)thio)propan-2-yl)thio)phenol]: in assay [1], the inhibition rate % is reported as 23.5% and the “Relative inhibition ability on free radicals” value was determined as 53.8. Moreover, in assay [2], the inhibition rate % is 53.8% and the “avarage value of OD” value is recorded as 7.21.
As to `CC(C)(Sc1cc(C(C)(C)C)c(O)c(C(C)(C)C)c1)Sc1cc(C(C)(C)C)c(O)c(C(C)(C)CCOC(=O)CN)c1` [Compound 19, 3-(3-(tert-butyl)-5-((2-((3,5-di-tert-butyl-4-hydroxyphenyl)thio)propan-2-yl)thio)-2-hydroxyphenyl)-3-methylbutyl glycinate], in assay [1], the inhibition rate % was found to be 32.1% and the “Relative inhibition ability on free radicals” value worked out at 42.6. Also, in assay [2], the inhibition rate % was found to be 27.9% and the “avarage value of OD” value was determined as 8.21.
For the compound `CC(N)C(=O)OCCC(C)(C)c1cc(SC(C)(C)Sc2cc(C(C)(C)C)c(O)c(C(C)(C)C)c2)cc(C(C)(C)C)c1O` (stereo not shown) [Compound 20, 3-(3-(tert-butyl)-5-((2-((3,5-di-tert-butyl-4-hydroxyphenyl)thio)propan-2-yl)thio)-2-hydroxyphenyl)-3-methylbutyl alaninate], in assay [1], the inhibition rate % is given as 26.3% and the “Relative inhibition ability on free radicals” value was found to be 38.9. Besides, in assay [2], the inhibition rate % turned out to be 30.7% and the “avarage value of OD” value was determined as 8.10.
The like results for `COC(=O)CN(CCC(C)(C)c1cc(SC(C)(C)Sc2cc(C(C)(C)C)c(O)c(C(C)(C)C)c2)cc(C(C)(C)C)c1O)CC(=O)OC` [Compound 22, dimethyl 2,2′-((3-(3-(tert-butyl)-5-((2-((3,5-di-tert-butyl-4-hydroxyphenyl)thio)propan-2-yl)thio)-2-hydroxyphenyl)-3-methylbutyl)azanediyl)diacetate] were, in that order, 42.6%, 97.6, 36.2% and 7.89.
In the case of `CC(C)(Sc1cc(C(C)(C)C)c(O)c(C(C)(C)C)c1)Sc1cc(C(C)(C)C)c(O)c(C(C)(C)CCn2cncn2)c1` [Compound 24, 2,6-di-tert-butyl-4-((2-((3-(tert-butyl)-4-hydroxy-5-(2-methyl-4-(1H-1,2,4-triazol-1-yl)butan-2-yl)phenyl)thio)propan-2-yl)thio)phenol], in assay [1], the inhibition rate % is reported as 19.2% and the “Relative inhibition ability on free radicals” value was 34.8. Moreover, in assay [2], the inhibition rate % amounted to 53.3% and the “avarage value of OD” value was 7.23.
Consider `CC(C)(Sc1cc(C(C)(C)C)c(O)c(C(C)(C)C)c1)Sc1cc(C(C)(C)C)c(O)c(C(C)(C)CCNS(=O)(=O)C2CC2)c1` [Compound 25, N-(3-(3-(tert-butyl)-5-((2-((3,5-di-tert-butyl-4-hydroxyphenyl)thio)propan-2-yl)thio)-2-hydroxyphenyl)-3-methylbutyl)cyclopropanesulfonamide], for which, in assay [1], the inhibition rate % stood at 28.6% and the “Relative inhibition ability on free radicals” value was determined as 29.3. In assay [2], the inhibition rate % came out at 48.1% and the “avarage value of OD” value is listed as 7.43.
With `CC(C)(Sc1cc(C(C)(C)C)c(O)c(C(C)(C)C)c1)Sc1cc(C(C)(C)C)c(O)c(C(C)(C)CCOC(=O)CCC(=O)NCCS(=O)(=O)O)c1` [Compound 27, 2-(4-(3-(3-(tert-butyl)-5-((2-((3,5-di-tert-butyl-4-hydroxyphenyl)thio)propan-2-yl)thio)-2-hydroxyphenyl)-3-methylbutoxy)-4-oxobutanamido)ethane-1-sulfonic acid], in assay [1], the inhibition rate % is given as 18.1% and the “Relative inhibition ability on free radicals” value is on record as 41.5. In addition, in assay [2], the inhibition rate % was found to be 30.2% and the “avarage value of OD” value is recorded as 8.12.
